The values that follow are results of earlier work, collected in patent US20180110939A1, “METHOD, SYSTEM AND APPARATUS FOR CONTROLLED DELIVERY OF OPIOID AND OTHER MEDICATIONS” (Somniferum Labs LLC, priority 2016, published 2018).

For series [1] the following is noted: for share of the total area under the concentration-time curve of morphine and its principle metabolites: following intravenous (IV) morphine administration in humans.
For series [2] the following is noted: in vivo.
The conditions of series [3]: in vivo. The source holds these as a separate data set.
For series [4] the following is noted: converted via the liver.

For the compound `CN1CC[C@]23c4c5ccc(O)c4O[C@H]2[C@@H](O[C@@H]2O[C@H](C(=O)O)[C@@H](O)[C@H](O)[C@H]2O)C=C[C@H]3[C@H]1C5` [M-6-G, morphine-6-glucuronide], the plasma protein binding entry was “low”. For the same compound, the “time from which M-6-G was present in higher concentrations than morphine” value in series [1] (following IV administration, h.p.l.c. method) was at least 1 h. Moreover, the “share of the total area under the concentration-time curve of morphine and its principle metabolites” value in series [1] is 15%. Further, in series [2], the “plasma concentrations higher than morphine” value is reported as “approximately 4 fold”. Also, the “LD50 (lethal dose)” value in series [3] was “no LD50”.
`CN1CC[C@]23c4c5ccc(O[C@@H]6O[C@H](C(=O)O)[C@@H](O)[C@H](O)[C@H]6O)c4O[C@H]2[C@@H](O)C=C[C@H]3[C@H]1C5` [M-3-G, morphine-3-glucuronide, reference compound]: the “share of the total area under the concentration-time curve of morphine and its principle metabolites” value in series [1] is “approximately 75%”. For the same compound, the “amount generated relative to M-6-G from a given amount of morphine” value in series [4] is 5 times.
